Laboratory results published in patent US11103514B2, “Treatment of muscular dystrophy” (Corcept Therapeutics, Inc., priority 2010, dated 2021).

Legend:
[1] = percent of the daily dose; in one study (Kawai); cited from earlier work
[2] = test system: bitransgenic EpA960/MCM mice; test: Tamoxifen-inducible heart-specific DM1 mouse model, mortality; assay type: in vivo; settings: intraperitoneal mifepristone in saline, beginning 2 hours after first tamoxifen injection; 1-100 mg per kg body weight; mock-treated mice 80% died within 3 weeks
Protocol: In this model, EpA960 RNA is induced in the bitransgenic EpA960/MCM mice (F1 progeny) by 5 consecutive daily intraperitoneal injections of tamoxifen (20 mg/kg/d) leading to high mortality, conduction abnormalities, and systolic and diastolic dysfunction. […] Control or mock-treated mice are injected with saline solution alone. Each of the control and test groups typically includes 10-20 mice.
Typically, eighty percent of the mock-treated mice died within 3 weeks of RNA induction due to arrhythmias and/or contractile dysfunction. […] Description of experimental procedures can be found in, e.g., Wang et al., J Clin Invest. 2009; 119(12):3797-806.

SMILES: CC#C[C@]1(O)CC[C@H]2[C@@H]3CCC4=CC(=O)CCC4=C3[C@@H](c3ccc(N(C)C)cc3)C[C@@]21C [Mifepristone, 17-β-hydroxy-11-β-(4-dimethyl-aminophenyl)-17-α-(1-propynyl)-estra-4,9-dien-3-one]
- daily dose excreted in the urine [1]: less than 0.5%
- reduction of the mortality of bitransgenic mice [2]: at least 10%
